Read-outs that look alike come from different tables or passages of the source.
How the values were obtained:
[1] = test system: HIV‐1 LTR (Jurkat^Tat LTR‐luciferase cell line); assay: Jurkat^Tat LTR‐luciferase reporter assay for HIV‐1 latency reversal; assay type: cell-based; conditions: for EC50: Human immunodeficiency virus 1, 24 h treatment, percent activation relative to PMA; for latency‐reversing activity of PH02 analogs compared with PH02: 24 h, also in Jurkat^Tat LTR‐DsRed clones #11 and #131
Protocol: Activity of compounds identified for latency‐reversing activity in the primary screens was further validated by examining the effect of a single concentration (7 μM) on an alternative reporter cell line, bearing an integrated HIV‐1 reporter virus where luciferase expression is produced from the 5′ LTR, in cells constitutively expressing the viral TAT protein (Fig 2A), referred to as Jurkat^Tat LTR‐luciferase. Importantly, this cell line has the HIV‐1 reporter virus integrated at a different chromosomal location than that of the A1 J‐Lat cell line and also enables validation of provirus reactivation with a second enzymatic luciferase assay. In these assays, after 24‐h treatment we observed 10 compounds that produced significant induction of luciferase activity, including two compounds from the KD2 library, three from the CCBN library and five compounds from the DIVERSet. Compounds that produced significant effects in these secondary assays were re‐ordered from their respective suppliers and examined in more detail using the HIV‐luciferase reporter cell line. […] These five compounds represent diverse chemical structures (Fig 2G).
Figure 2 Concentration–response analysis for five selected PH compounds • A Schematic representation of the pTY‐LAI‐luciferase reporter virus used in secondary screening assays, where luciferase expression is under the control of the 5′ LTR, in cloned lines derived from Jurkat^TAT cells bearing single‐copy integrants. • B–F Luciferase activity was measured from reporter cells treated for 24 h with the indicated compound concentrations. Results are presented as percent activation relative to PMA‐treated controls. The EC50 for each compound is indicated. Mean and standard error (SE) for the results are determined from three biological replicates (n = 3) and technical duplicates. • G Illustration of chemical structures of the PH compounds.
Luciferase assays were performed in 96‐well plate format, where 100 μl of cell culture containing 1 × 10^5 luciferase reporter cells was plated per well. After the indicated time of treatment, 100 μl of luciferase assay reagent (SuperlightTM luciferase reporter Gene Assay Kit; BioAssay Systems) was added per well, and incubated for 2 min at RT, when luciferase activity was measured on a VictorTM X3 Multilabel Plate Reader. Results were presented relative to the positive control samples treated with 50 nM PMA. T‐cell activation was measured using 1 × 10^5 wild‐type Jurkat^Tat cells or PBMCs purified from healthy donors, treated as indicated. After 24 h, cells were incubated with 2.4G2 antibody to block nonspecific binding and further stained with 5 μl of anti‐human CD69 or an IgG1 isotype control antibody conjugated with PE‐Cy^Tm7. After 30‐min incubation on ice, the cells were washed twice with PBS and analyzed using a Becton Dickinson LSRII flow cytometer (BD Biosciences) to determine mean fluorescence intensity (MFI), using FlowJo software. The mean fluorescence intensity (MFI) obtained from cells stained with IgG isotype antibody control was subtracted from that from cells stained with CD69 to compensate for background (MFICD69‐MFIIgG). IL‐2 production was measured in cell culture supernatants using a human IL‐2 ELISA System (eBioscience). Jurkat^Tat clones bearing integrations of the mini‐dual HIV reporter virus, clone #11 and #131, were plated at 1 × 10^5 per well in a 96‐well plate format, treated for the indicated time, washed with 1 ml PBS, and then transferred into flow cytometry tubes, where they were fixed with freshly made 1% formaldehyde for 10 min at RT prior to analysis by flow cytometry. Results are presented as ΔMFI, where MFI obtained from parental Jurkat^Tat cells undergoing the same treated was subtracted from the MFI corresponding to each cell line; ΔMFI = (MFI compound‐treated cell line 131/11 − MFI compound‐treated WT Jurkat^Tat cells).

[2] = test system: latent HIV‐1 provirus in resting CD4^+ T cells from HIV‐1‐infected patients; assay: Supernatant HIV‐1 RNA from resting CD4+ T cells of patients (RT–qPCR); assay type: cell-based; conditions: 24 h
Protocol: For this analysis, we purified resting CD4^+ (rCD4^+) T lymphocytes from pools of patient samples by two‐step negative selection (Appendix Table S3). […] Purified rCD4^+ T cells were treated with 30 μM of each PH compound for 24 h, and RNA from the culture supernatants was analyzed by one‐step RT–qPCR, where results are presented as copy numbers of the virion/ml. […] Based on its capability for reactivating latent provirus at multiple chromosomal locations in cell lines, its negligible toxic effect, and that it produces the most robust reactivation of virus from patient samples, we focused our subsequent analysis on this compound (Table 1).
Figure 8 Effect of PH compounds on expression of HIV provirus in latently infected cells from patients Resting CD4^+ T cells purified from patient samples (n = 18, Appendix Table S3) were treated with 30 μM of each PH compound for 24 h, and HIV‐1 RNA was measured in culture supernatants. Results are presented as HIV virions/ml (mean ± SE). LOD indicates the limit of detection, 100 copies/ml culture supernatant. TEXT PRINTED IN THE PICTURE: PMA: Supernatant HIV-1 mRNA (Copies/ml): 308929.80 (50 nM) | PH01: Supernatant HIV-1 mRNA (Copies/ml): 5348.04 (Single Concentration (30μM)) | PH02: Supernatant HIV-1 mRNA (Copies/ml): 17624.53 (Single Concentration (30μM)) | PH03: Supernatant HIV-1 mRNA (Copies/ml): 4714.11 (Single Concentration (30μM)) | PH04: Supernatant HIV-1 mRNA (Copies/ml): 7134.68 (Single Concentration (30μM)) | PH05: Supernatant HIV-1 mRNA (Copies/ml): 587.19 (Single Concentration (30μM))
HIV‐1 RNA was measured from 1 × 10^6 resting CD4^+ T lymphocytes treated with 30 μM of each compound. Extracellular RNA was isolated using the ZR Viral RNA Kit (Zymo Research) and total cellular mRNA using the RNeasy MinElute cleanup kit (Qiagen). HIV‐1 RNA concentrations were assayed in one‐step RT–qPCRs using the iTaq™ universal SYBR Green one‐step kit (BIO‐RAD) with the HIV‐1 LTR‐specific primers, AGCCGCCTAGCATTTCATC and […]. RNA copy number was calculated using a standard curve generated from titrated infections with RGH‐PGK virus (Dahabieh et al, 2013). Reproducibility of RT–qPCR analysis was confirmed using a second set of primers within HIV‐1 p24 Gag, AGCAGCCATGCAAATGTTA, […]. HIV‐1 RNA determinations were normalized to GAPDH RNA measured using the primers […] and […].

[3] = test system: HIV‐1 LTR (Jurkat^Tat LTR‐DsRed clone #11); assay: mdHIV LTR‐DsRed reporter assay, clone #11; assay type: cell-based; conditions: PMA stimulation, of eGFP expressing cells
From the text: HIV‐1 tends to integrate into actively transcribed regions of the host genome (Jordan et al, 2003; Lewinski et al, 2006; Ikeda et al, 2007). Each HIV‐1‐infected patient carries viral DNA integrated at different chromosomal locations, and as we have previously shown, the site of viral integration influences how latently infected T cells respond to different stimuli (Hashemi et al, 2016). Therefore, an ideal LRA should be capable of disrupting latency in cell models carrying integrated viral reporters at multiple different regions within the host genome. To assess this capability for the PH compounds, we used two additional previously described cell lines, designated Jurkat^Tat LTR‐DsRed clones #11, and #131, that carry a mini‐dual fluorescent HIV‐1 LTR reporter (mdHIV) at different chromosomal locations. The minivirus mdHIV has two fluorescent reporters in which DsRed expression is driven from the 5′ LTR, and eGFP is constitutively expressed from an internal EIF‐1α promoter (Fig 5A). […]
Figure 5 Effect of PH02 on HIV provirus integrated at different chromosomal locations • A The effect of PH compounds was analyzed using clonal lines bearing single‐copy integrations of the mini‐dual fluorescent HIV‐1 LTR reporter, md‐HIV, where GFP is constitutively expressed from the EIF‐1α internal promoter, and DsRed from the 5′ LTR. • B Fluorescence‐activated cell sorting (FACS) of cells bearing md‐HIV provirus indicates expression of EIF‐1α‐GFP and LTR‐dsRed. Stimulation of the md‐HIV lines generally causes a shift of the fluorescence profile from GFP^+/DsRed^− toward GFP^+/DsRed^+. • C, D Clone 11 or clone 131 was treated with the indicated concentrations of PH02 (left panels) or PH02 in combination with 10 nM PEP005 (right panels) for 24 h and cells analyzed by flow cytometry. Results presented as Δmean fluorescence intensity (ΔMFI) of DsRed expression and fold increase in DsRed expression for solo and combination treatments, respectively. Mean and SE are determined from three biological replicates (n = 3) and technical duplicates. […]

[4] = test system: HIV reservoir; conditions: cited from earlier work

SMILES	EC50 [1]	Supernatant HIV-1 mRNA ([2]; 30 μM, LOD 100 copies/ml)	other results
Cn1c(C=Cc2c[nH]c3ccccc23)nc2ccccc2c1=O [PH01, 2‐[2‐(1H‐indol‐3‐yl)vinyl]‐3‐methyl‐4(3H)‐quinazolinone]	141 nM	5348.04 Copies/ml	
COc1ccccc1N(/C=C1\Sc2ccccc2C1=O)C(C)=O [PH02a, N-(2-methoxyphenyl)-N-[(3-oxo-1-benzothien-2(3H)-ylidene)methyl]acetamide]			latency‐reversing activity of PH02 analogs compared with PH02 [1]: significant reduction
COc1ccccc1N(C=O)/C=C1\Sc2ccccc2C1=O [PH02b, (2-methoxyphenyl)[(3-oxo-1-benzothien-2(3H)-ylidene)methyl]formamide]			latency‐reversing activity of PH02 analogs compared with PH02 [1]: significant reduction
Cl.Nc1ccc(-c2ccc3ccccc3n2)cc1 [PH03, 2‐(4‐aminophenyl)quinoline hydrochloride]	1250 nM	4714.11 Copies/ml	
Cc1cc(I)cnc1NC(=S)NC(=O)c1ccco1 [PH04, N‐{[(5‐iodo‐3‐methyl‐2‐pyridinyl)amino]carbonothioyl}‐2‐furamide]	2560 nM	7134.68 Copies/ml	
COc1cccc(-n2nnc(C(=O)Nc3ccc(C)cc3)c2C)c1 [PH05, 1‐(3‐methoxyphenyl)‐5‐methyl‐N‐(4‐methylphenyl)‐1H‐1,2,3‐triazole‐4‐carboxamide]	5900 nM	587.19 Copies/ml	
CCCCCCCCCCCCCC(=O)O[C@@H]1[C@@H](C)[C@@]2(O)[C@@H](C=C(CO)C[C@]3(O)C(=O)C(C)=C[C@@H]23)[C@@H]2C(C)(C)[C@]12OC(C)=O [PMA, phorbol 12‐myristate 13‐acetate, reference compound]			cells producing dsRed expression upon stimulation [3]: ~ 40%; Supernatant HIV-1 mRNA ([2]; 50 nM, positive control): 308929.80 Copies/ml
Cc1[nH]c2ccccc2c1CCNCc1ccc(/C=C/C(=O)NO)cc1 [Panobinostat]			reduction in the HIV reservoir ([4]; 20 mg three times a week every other week for 8 weeks, ref Rasmussen et al, 2014): did not produce a reduction in the HIV reservoir
O=C(CCCCCCC(=O)Nc1ccccc1)NO [Vorinostat, suberoylanilide hydroxamic acid]			reduction in the HIV reservoir ([4]; 400 mg daily for 14 days or 3 days a week for 8 weeks, ref Archin et al, 2014, Elliott et al): did not produce a reduction in the HIV reservoir
